# Laboratory results reported in patent US11192850B2, “N-aryl oxamic acids” (Purdue Research Foundation, priority 2020, dated 2021).
# Legend:
# Format in all cases: biochemical
# Settings in all cases: pNPP at Km of the PTP
# PTP1B = PTP1B (Homo sapiens (Human), UniProt P18031); experiment: pNPP inhibition assay against PTP1B
# SHP2 = SHP2 (Homo sapiens (Human), UniProt Q06124); experiment: pNPP inhibition assay against SHP2
# SHP1 = SHP1 (Homo sapiens (Human), UniProt P29350); experiment: pNPP inhibition assay against SHP1
# Chain of SHP1 (P29350 244-515): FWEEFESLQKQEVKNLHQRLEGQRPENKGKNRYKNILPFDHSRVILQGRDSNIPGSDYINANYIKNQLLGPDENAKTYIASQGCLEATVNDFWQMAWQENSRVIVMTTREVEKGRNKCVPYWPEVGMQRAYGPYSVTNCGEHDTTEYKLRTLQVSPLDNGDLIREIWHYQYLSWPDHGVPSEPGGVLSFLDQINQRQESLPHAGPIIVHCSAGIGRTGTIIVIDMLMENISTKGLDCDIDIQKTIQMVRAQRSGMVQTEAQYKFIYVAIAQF
# Chain of PTP1B (P18031 3-277): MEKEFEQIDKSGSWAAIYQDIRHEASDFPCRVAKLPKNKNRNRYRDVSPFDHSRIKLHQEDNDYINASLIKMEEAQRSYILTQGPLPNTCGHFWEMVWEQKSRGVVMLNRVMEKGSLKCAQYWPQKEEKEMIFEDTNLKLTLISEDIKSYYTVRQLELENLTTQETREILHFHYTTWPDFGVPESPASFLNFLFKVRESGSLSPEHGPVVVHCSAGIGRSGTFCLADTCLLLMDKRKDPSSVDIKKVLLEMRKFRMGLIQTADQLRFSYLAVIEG
# Chain of SHP2 (Q06124 247-517): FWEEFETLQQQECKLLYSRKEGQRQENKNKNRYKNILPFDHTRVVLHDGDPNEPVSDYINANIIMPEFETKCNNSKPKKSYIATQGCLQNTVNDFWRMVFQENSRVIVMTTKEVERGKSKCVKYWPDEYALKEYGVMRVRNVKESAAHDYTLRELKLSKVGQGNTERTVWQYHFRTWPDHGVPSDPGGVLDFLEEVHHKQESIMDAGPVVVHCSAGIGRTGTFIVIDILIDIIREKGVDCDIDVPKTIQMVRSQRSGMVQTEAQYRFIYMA
compound,measurement,setting,value
"O=C(O)C(=O)Nc1ccccc1 [Compound 1, Oxanilic Acid]",IC50,PTP1B,> 100 µM
same,IC50,SHP2,> 100 µM
"C#Cc1ccc(NC(=O)C(=O)O)cc1 [Compound 2, 2-((4-ethynylphenyl)amino)-2-oxoacetic Acid]",IC50,PTP1B,> 100 µM
same,IC50,SHP2,> 100 µM
"CC(C)(C)OC(=O)NCC#Cc1ccc(NC(=O)C(=O)O)cc1 [Compound 3, 2-((4-(3-((tert-butoxycarbonyl)amino)prop-1-yn-1-yl)phenyl)amino)-2-oxoacetic Acid]",IC50,PTP1B,> 100 µM
same,IC50,SHP2,58 ± 2 µM
"COC(=O)c1ccc(C#Cc2ccc(NC(=O)C(=O)O)cc2)cc1O [Compound 4c, 2-((4-((3-hydroxy-4-(methoxycarbonyl)phenyl)ethynyl)phenyl)amino)-2-oxoacetic Acid]",IC50,PTP1B,> 50 µM
same,IC50,SHP2,> 50 µM
same,IC50,SHP1,> 50 µM
"COC(=O)c1cc(C#Cc2cccc(NC(=O)C(=O)O)c2)c(N(C)C)cc1O [Compound 4e, 2-((3-((2-(dimethylamino)-4-hydroxy-5-(methoxycarbonyl)phenyl)ethynyl)phenyl)amino)-2-oxoacetic Acid]",IC50,PTP1B,> 50 µM
same,IC50,SHP2,> 50 µM
same,IC50,SHP1,> 50 µM
"O=C(O)C(=O)Nc1ccc(C#Cc2ccc(OC(F)(F)F)cc2)cc1 [Compound 4i, 2-oxo-2-((4-((4-(trifluoromethoxy)phenyl)ethynyl)phenyl)amino)acetic Acid]",IC50,PTP1B,> 50 µM
same,IC50,SHP2,> 50 µM
same,IC50,SHP1,> 50 µM
"O=C(O)C(=O)Nc1ccc(C#Cc2cccc(C(F)(F)F)c2)cc1 [Compound 4j, 2-oxo-2-((4-((3-(trifluoromethyl)phenyl)ethynyl)phenyl)amino)acetic Acid]",IC50,PTP1B,29.5 ± 4.1 µM
same,IC50,SHP2,> 50 µM
same,IC50,SHP1,> 50 µM
"NS(=O)(=O)c1ccc(C#Cc2ccc(NC(=O)C(=O)O)cc2)cc1 [Compound 4l, 2-oxo-2-((4-((4-sulfamoylphenyl)ethynyl)phenyl)amino)acetic Acid]",IC50,PTP1B,> 50 µM
same,IC50,SHP2,> 50 µM
same,IC50,SHP1,29.9 ± 3.3 µM
"O=C(O)C(=O)Nc1ccc(C#Cc2ccc(O)cc2)cc1 [Compound 4m, 2-((4-((4-hydroxyphenyl)ethynyl)phenyl)amino)-2-oxoacetic Acid]",IC50,PTP1B,> 50 µM
same,IC50,SHP2,> 50 µM
same,IC50,SHP1,> 50 µM
"O=C(O)C(=O)Nc1ccc(C#Cc2ccc(O)c(Br)c2)cc1 [Compound 4n, 2-((4-((3-bromo-4-hydroxyphenyl)ethynyl)phenyl)amino)-2-oxoacetic Acid]",IC50,PTP1B,> 50 µM
same,IC50,SHP2,44.5 ± 3.4 µM
same,IC50,SHP1,> 50 µM
"N#Cc1ccc(C#Cc2ccc(NC(=O)C(=O)O)cc2)cc1 [Compound 4o, 2-((4-((4-cyanophenyl)ethynyl)phenyl)amino)-2-oxoacetic Acid]",IC50,PTP1B,> 50 µM
same,IC50,SHP2,> 50 µM
same,IC50,SHP1,> 50 µM
"CC(C)(C)OC(=O)Nc1ccc(C#Cc2ccc(NC(=O)C(=O)O)cc2)cc1 [Compound 4s, 2-((4-((4-((tert-butoxycarbonyl)amino)phenyl)ethynyl)phenyl)amino)-2-oxoacetic Acid]",IC50,PTP1B,> 50 µM
same,IC50,SHP2,> 50 µM
same,IC50,SHP1,> 50 µM
"N#Cc1cc(C(F)(F)F)ccc1C#Cc1ccc(NC(=O)C(=O)O)cc1 [Compound 4w, 2-((4-((2-cyano-4-(trifluoromethyl)phenyl)ethynyl)phenyl)amino)-2-oxoacetic Acid]",IC50,PTP1B,27.4 ± 6.3 µM
same,IC50,SHP2,10.6 ± 2.5 µM
same,IC50,SHP1,13.7 ± 3.1 µM
"O=C(O)C(=O)Nc1cccc(C#Cc2ccccc2)c1 [Compound 5, 2-oxo-2-((3-(phenylethynyl)phenyl)amino)acetic Acid]",IC50,PTP1B,> 100 µM
same,IC50,SHP2,69 ± 4 µM
"O=C(O)C(=O)Nc1ccc(-c2ccccc2)cc1 [Compound 6, 2-([1,1′-biphenyl]-4-ylamino)-2-oxoacetic Acid]",IC50,PTP1B,62 ± 5 µM
same,IC50,SHP2,29 ± 8 µM
"O=C(O)C(=O)Nc1cccc(-c2ccccc2)c1 [Compound 7, 2-([1,1′-biphenyl]-3-ylamino)-2-oxoacetic Acid]",IC50,PTP1B,> 100 µM
same,IC50,SHP2,> 100 µM
